Assay results as given in article PMC9058255 (RSC Advances, 2020).
Like-named read-outs stand apart in the source and are kept apart here.

What was measured:
[1] = test system: MERS-S pseudovirus; assay: organism not typed; format: cell-based, MERS-CoV; conditions: for IC50: read-out: IC50: 50% inhibitory concentration
[2] = in vitro; conditions: human
[3] = test system: Huh-7 cells

Molecule | IC50 ([1]; Huh-7, 48 h) [µM] | CC50 [2] [µM] | further results
COc1cccc(/C=N/c2nc3ccccc3s2)c1O [Compound 1e, (E)-2-((benzo[d]thiazol-2-ylimino)methyl)-6-methoxyphenol] | > 10 |  | inhibitory activity against MERS-S pseudovirus (in words) [1]: lost inhibitory activity
Fc1cccc2sc(-c3ccc(/N=C/c4ccsc4)cc3)nc12 [Compound 4h, (E)-N-(4-(4-Fluorobenzo[d]thiazol-2-yl)phenyl)-1-(thiophen-3-yl)methanimine] | 0.53 ± 0.02 |  | 
COc1cccc(/C=N/c2ccc(-c3nc4ccccc4[nH]3)cc2)c1O [Compound 1c, (E)-2-(((4-(1H-Benzo[d]imidazol-2-yl)phenyl)imino)methyl)-6-methoxyphenol] | > 10 |  | inhibitory activity against MERS-S pseudovirus (in words) [1]: lost inhibitory activity
C(=N\c1ccc(-c2nc3ccccc3s2)cc1)/c1cscn1 [Compound 1s, (E)-N-(4-(Benzo[d]thiazol-2-yl)phenyl)-1-(thiazol-4-yl)methanimine] | > 10 | > 100 | 
C(=N\c1ccc(-c2nc3ccccc3s2)cc1)/c1cc[nH]c1 [Compound 1p, (E)-N-(4-(Benzo[d]thiazol-2-yl)phenyl)-1-(1H-pyrrol-3-yl)methanimine] | > 10 | > 100 | 
CNC(=O)c1ccc2nc(-c3ccc(/N=C/c4ccsc4)cc3)sc2c1 [Compound 4n, (E)-N-Methyl-2-(4-((thiophen-3-ylmethylene)amino)phenyl)benzo[d]thiazole-6-carboxamide] | > 10 |  | 
Oc1cccc(/C=N/c2ccc(-c3nc4ccccc4s3)cc2)c1O [Compound 1k, (E)-3-(((4-(Benzo[d]thiazol-2-yl)phenyl)imino)methyl)benzene-1,2-diol] | 0.4 ± 0.01 | > 100 | 
Fc1cccc2nc(-c3ccc(/N=C/c4ccsc4)cc3)sc12 [Compound 4e, (E)-N-(4-(7-Fluorobenzo[d]thiazol-2-yl)phenyl)-1-(thiophen-3-yl)methanimine] | 1.67 ± 0.3 |  | 
CN(C)c1ccc2nc(-c3ccc(/N=C/c4ccsc4)cc3)sc2c1 [Compound 4l, (E)-N,N-Dimethyl-2-(4-((thiophen-3-ylmethylene)amino)phenyl)benzo[d]thiazol-6-amine] | > 10 |  | 
C(=N\c1ccc(-c2nc3ccccc3s2)cc1)/c1ccsc1 [Compound 1o, (E)-N-(4-(Benzo[d]thiazol-2-yl)phenyl)-1-(thiophen-3-yl)methanimine] | 0.14 ± 0.06 | > 100 | 
C(=N\c1ccc(-c2cn3ccccc3n2)cc1)/c1ccsc1 [Compound 4d, (E)-N-(4-(Imidazo[1,2-a]pyridin-2-yl)phenyl)-1-(thiophen-3-yl)methanimine] | > 10 |  | 
C(=N\c1ccc(-c2nc3ccccc3s2)cc1)/c1nccs1 [Compound 1u, (E)-N-(4-(Benzo[d]thiazol-2-yl)phenyl)-1-(thiazol-2-yl)methanimine] | > 10 | > 100 | 
COc1cccc(/C=N/c2ccc(-c3nc4ccccc4s3)nc2)c1O [Compound 1d, (E)-2-(((6-(Benzo[d]thiazol-2-yl)pyridin-3-yl)imino)methyl)-6-methoxyphenol] | 2.7 ± 0.19 |  | inhibitory activity against MERS-S pseudovirus (in words) [1]: Modest inhibitory activity
Fc1ccc2nc(-c3ccc(/N=C/c4ccsc4)cc3)sc2c1 [Compound 4f, (E)-N-(4-(6-Fluorobenzo[d]thiazol-2-yl)phenyl)-1-(thiophen-3-yl)methanimine] | 0.09 ± 0.01 |  | 
C(=N\c1ccc(-c2nc3ccccc3s2)cc1)/c1cccs1 [Compound 1q, (E)-N-(4-(Benzo[d]thiazol-2-yl)phenyl)-1-(thiophen-2-yl)methanimine] | 6.52 ± 1.14 | > 100 | inhibitory activity against MERS-S pseudovirus (in words) [1]: modest inhibitory capacity
(E)-N-(4-(Benzo[d]thiazol-2-yl)phenyl)-1-(3-methoxyphenyl)methanimine [Compound 1j] |  |  | CC50 [3]: > 100 µM; IC50 [1]: 0.2 ± 0.05 µM
CNc1ccc2nc(-c3ccc(/N=C/c4ccsc4)cc3)sc2c1 [Compound 4k, (E)-N-Methyl-2-(4-((thiophen-3-ylmethylene)amino)phenyl)benzo[d]thiazol-6-amine] | > 10 |  | 
C(=N\c1ccc(-c2nc3ncccc3s2)cc1)/c1ccsc1 [Compound 4a, (E)-N-(4-(Thiazolo[4,5-b]pyridin-2-yl)phenyl)-1-(thiophen-3-yl)methanimine] | > 10 |  | 
COc1cccc(CNc2ccc(-c3nc4ccccc4s3)cc2)c1O [Compound 1f, 2-(((4-(benzo[d]thiazol-2-yl)phenyl)amino)methyl)-6-methoxy-phenol] | > 10 |  | inhibitory activity against MERS-S pseudovirus (in words) [1]: inhibitory activity was markedly reduced

Molecule | IC50 ([1]; Huh-7, 48 h) [µM] | CC50 [2] [µM] | further results
Cc1ccc2nc(-c3ccc(/N=C/c4ccsc4)cc3)sc2c1 [Compound 4j, (E)-N-(4-(6-Methylbenzo[d]thiazol-2-yl)phenyl)-1-(thiophen-3-yl)methanimine] | > 10 |  | 
O=[N+]([O-])c1cc(/C=N/c2ccc(-c3nc4ccccc4s3)cc2)cs1 [Compound 1r, (E)-N-(4-(Benzo[d]thiazol-2-yl)phenyl)-1-(5-nitrothiophen-3-yl)methanimine] | 0.62 ± 0.31 | > 100 | 
C(=N\c1ccc(-c2nc3c(s2)CCCC3)cc1)/c1ccsc1 [Compound 4b, (E)-N-(4-(4,5,6,7-Tetrahydrobenzo[d]thiazol-2-yl)phenyl)-1-(thiophen-3-yl) methanimine] | > 10 |  | 
O=C(O)c1ccc2nc(-c3ccc(/N=C/c4ccsc4)cc3)sc2c1 [Compound 4m, (E)-2-(4-((Thiophen-3-ylmethylene)amino)phenyl)benzo[d]thiazole-6-carboxylic acid] | > 10 |  | 
Fc1ccc2sc(-c3ccc(/N=C/c4ccsc4)cc3)nc2c1 [Compound 4g, (E)-N-(4-(5-Fluorobenzo[d]thiazol-2-yl)phenyl)-1-(thiophen-3-yl)methanimine] | 1 ± 0.07 |  | 
COc1ccc(/C=N/c2ccc(-c3nc4ccccc4s3)cc2)cc1O [Compound 1l, (E)-5-(((4-(Benzo[d]thiazol-2-yl)phenyl)imino)methyl)-2-methoxyphenol] | 0.22 ± 0.03 | > 100 | 
CCOc1ccc2nc(-c3ccc(/N=C/c4ccsc4)cc3)sc2c1 [Compound 4i, (E)-N-(4-(6-Ethoxybenzo[d]thiazol-2-yl)phenyl)-1-(thiophen-3-yl)methanimine] | > 10 |  | 
C(=N\c1ccc(-c2nc3ccccc3s2)cc1)/c1ccccc1 [Compound 1h, (E)-N-(4-(Benzo[d]thiazol-2-yl)phenyl)-1-phenylmethanimine] | 0.57 ± 0.11 | > 100 | 
C(=N\c1ccc(-c2nc3ccccc3s2)cc1)/c1ccoc1 [Compound 1n, (E)-N-(4-(Benzo[d]thiazol-2-yl)phenyl)-1-(furan-3-yl)methanimine] | > 10 | > 100 | 
COc1cccc(C(=O)Nc2ccc(-c3nc4ccccc4s3)cc2)c1O [Compound 1g, N-(4-(benzo[d]thiazol-2-yl)phenyl)-2-hydroxy-3-methoxybenzamide] | > 10 |  | inhibitory activity against MERS-S pseudovirus (in words) [1]: inhibitory activity was markedly reduced
C(=N\c1ccc(Oc2nc3ccccc3s2)cc1)/c1ccsc1 [Compound 4o, (E)-N-(4-(Benzo[d]thiazol-2-yloxy)phenyl)-1-(thiophen-3-yl)methanimine] | > 10 |  | inhibitory activity against MERS-S pseudovirus (in words) [1]: inhibitory activity was abolished
COc1cccc(/C=N/c2ccc(-c3nc4ccccc4o3)cc2)c1O [Compound 1b, (E)-2-(((4-(Benzo[d]oxazol-2-yl)phenyl)imino)methyl)-6-methoxyphenol] | > 10 |  | inhibitory activity against MERS-S pseudovirus (in words) [1]: lost inhibitory activity
C(=N\c1ccc(-c2nc3ccccc3s2)cc1)/c1cncs1 [Compound 1t, (E)-N-(4-(Benzo[d]thiazol-2-yl)phenyl)-1-(thiazol-5-yl)methanimine] | 8.8 ± 0.01 | > 100 | 
COc1cccc(/C=N/c2ccc(-c3nc4ccccc4s3)cc2)c1O [Compound 1a, (E)-2-(((4-(Benzo[d]thiazol-2-yl)phenyl)imino)methyl)-6-methoxyphenol] |  |  | inhibitory activity against MERS-S pseudovirus (in words) [1]: modest entry inhibitor; IC50 [1]: 0.73 ± 0.66 µM
C(=N\c1ccc(-c2nc3ccccc3s2)cc1)/c1cccnc1 [Compound 1m, (E)-N-(4-(Benzo[d]thiazol-2-yl)phenyl)-1-(pyridin-3-yl)methanimine] | 0.34 ± 0.24 | > 100 | 
Oc1ccccc1/C=N/c1ccc(-c2nc3ccccc3s2)cc1 [Compound 1i, (E)-2-(((4-(Benzo[d]thiazol-2-yl)phenyl)imino)methyl)phenol] | 0.52 ± 0.03 | > 100 | 
C(=N\c1ccc(-c2cn3c(n2)sc2ccccc23)cc1)/c1ccsc1 [Compound 4c, (E)-N-(4-(Benzo[d]imidazo[2,1-b]thiazol-2-yl)phenyl)-1-(thiophen-3-yl) methanimine] | > 10 |  | 
C(=N\c1ccc(Sc2nc3ccccc3s2)cc1)/c1ccsc1 [Compound 4p, (E)-N-(4-(Benzo[d]thiazol-2-ylthio)phenyl)-1-(thiophen-3-yl)methanimine] | > 10 |  | inhibitory activity against MERS-S pseudovirus (in words) [1]: inhibitory activity was abolished
